# US20120071427A1, “NOVEL ANTIDIABETIC FUROSTANOLIC SAPONIN RICH (FSR) FRACTION FROM FENUGREEK SEEDS” (priority 2009, published 2012)
# Test system: Type-1 diabetic rats
# Assay: Chronic administration, plasma glucose level in Type-1 diabetic rats
# Format: in vivo
# Details: for PGL: INS 1 U/kg i.p. once daily; for % PGL Reduction: INS 1 U/kg i.p., vs respective vehicle control group
# Protocol: Experimental studies were performed in animal models (rats) to determine anti-diabetic potential if any (Type 1 and Type 2) of the novel fraction isolated from fenugreek seeds (>70% furostanolic saponins with approximately 30% protodioscin as one of the major fractions).
substance,measurement,setting,value
Insulin,PGL,0 d,527.98 ± 50.31 mg/dL
same,PGL,7 d,218.33 ± 16.87 mg/dL
same,PGL,14 d,260.65 ± 22.96 mg/dL
same,% PGL Reduction,7 d,(56.3%)
same,% PGL Reduction,14 d,(48.2%)
same,% PGL Reduction,"14 d, listed as insulin",48.2%
